Laboratory results: PubChem BioAssay AID1963875 (Molecular Pharmacology Branch, DTP, NCI, 2024)

Tested on: KRAS-mutant PDC complex spheroid viability
Assay: Anticancer human tumor 186277-243-T-J2-PDC patient-derived colon adenocarcinoma cell line growth inhibition [KRAS2]
Conditions: for IC50: curve of first compound; for viability, T/C: stronger effect = lower value
Outline: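 Combination screen of spheroid viability in tumor-cell co-cultures with endothelial (HUVEC) and mesenchymal stem cell stroma. Each agent was tested in half-log dilutions, topping at clinical Cmax or at 10 microM without a known Cmax.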

[1] = second compound 0.0316 µM, first compound 0.0316 µM
[2] = second compound 0.0316 µM, first compound 0.1 µM
[3] = second compound 0.0316 µM, first compound 0.316 µM
[4] = second compound 0.0316 µM, first compound 1 µM
[5] = second compound 0.0316 µM, first compound 3.16 µM
[6] = second compound 0.1 µM, first compound 0.0316 µM
[7] = second compound 0.1 µM, first compound 0.1 µM
[8] = second compound 0.1 µM, first compound 0.316 µM
[9] = second compound 0.1 µM, first compound 1 µM
[10] = second compound 0.1 µM, first compound 3.16 µM
[11] = second compound 0.1 µM, first compound 10 µM
[12] = second compound 0.316 µM, first compound 0.0316 µM
[13] = second compound 0.316 µM, first compound 0.1 µM
[14] = second compound 0.316 µM, first compound 0.316 µM
[15] = second compound 0.316 µM, first compound 1 µM
[16] = second compound 0.316 µM, first compound 3.16 µM
[17] = second compound 0.316 µM, first compound 10 µM
[18] = second compound 1 µM, first compound 0.0316 µM
[19] = second compound 1 µM, first compound 0.1 µM
[20] = second compound 1 µM, first compound 0.316 µM
[21] = second compound 1 µM, first compound 1 µM
[22] = second compound 1 µM, first compound 3.16 µM
[23] = second compound 1 µM, first compound 10 µM
[24] = second compound 3.16 µM, first compound 0.0316 µM
[25] = second compound 3.16 µM, first compound 0.1 µM
[26] = second compound 3.16 µM, first compound 0.316 µM
[27] = second compound 3.16 µM, first compound 1 µM
[28] = second compound 3.16 µM, first compound 3.16 µM
[29] = second compound 3.16 µM, first compound 10 µM
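Throughout, for viability, T/C: viability read after seven days of compound exposure; 100% = DMSO vehicle-treated spheroids so lower means less viable.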

SMILES | IC50 (second compound 0.1 µM) | IC50 (second compound 0.316 µM) | IC50 (second compound 1 µM) | IC50 (second compound 3.16 µM) | viability, T/C [6] | viability, T/C [7] | viability, T/C [8] | viability, T/C [9] | viability, T/C [10] | viability, T/C [12] | viability, T/C [13] | viability, T/C [14] | viability, T/C [15] | viability, T/C [16] | viability, T/C [18] | viability, T/C [19] | viability, T/C [20] | viability, T/C [21] | viability, T/C [22] | viability, T/C [24] | also measured
CCNC(=O)CC1N=C(c2ccc(Cl)cc2)c2cc(OC)ccc2-n2c(C)nnc21 (stereo not given) + C=CC(=O)N1CCN(c2nc(OCC3CCCN3C)nc3c2CCN(c2cccc4cccc(C)c24)C3)CC1CC#N | > 10000 nM | > 10000 nM | 8180 nM | < 31.6 nM | 106% | 99% | 113% | 169% | 154% | 99.9% | 96.9% | 125% | 149% | 130% | 97% | 107% | 138% | 138% | 93.6% | 1.32% | IC50 (second compound 0.0316 µM): > 10000 nM; viability, T/C [1]: 100%; viability, T/C [2]: 102%; viability, T/C [3]: 118%; viability, T/C [4]: 171%; viability, T/C [5]: 151%; viability, T/C (second compound 0.0316 µM, first compound 10 µM): 118%; viability, T/C [11]: 116%; viability, T/C [17]: 102%; viability, T/C [23]: 40.8%; viability, T/C [25]: 10.2%; viability, T/C [26]: 1.62%; viability, T/C [27]: 1.12%; viability, T/C [28]: 0.2%; viability, T/C [29]: 0.24%
CC(C)NCC(C(=O)N1CCN(c2ncnc3c2C(C)CC3O)CC1)c1ccc(Cl)cc1 (stereo not given) + CNCc1ccccc1-c1csc(C(C)Nc2nc(C)nc3cc(OC)c(OC)cc23)c1 | 585 nM | 469 nM | 298 nM | < 31.6 nM | 111% | 106% | 61.2% | 37.8% | 24.1% | 121% | 96.6% | 60.3% | 29.4% | 19.6% | 109% | 92.4% | 44.9% | 24.1% | 13.3% | 0.41% | IC50 (second compound 10 µM): < 31.6 nM; viability, T/C [11]: 11.2%; viability, T/C [17]: 10.6%; viability, T/C [23]: 8.81%; viability, T/C [25]: 9.82%; viability, T/C [26]: 0.48%; viability, T/C [27]: 1.02%; viability, T/C [28]: 0.58%; viability, T/C [29]: 0.47%; viability, T/C (second compound 10 µM, first compound 0.0316 µM): 0.14%; viability, T/C (second compound 10 µM, first compound 0.1 µM): 0.12%; viability, T/C (second compound 10 µM, first compound 0.316 µM): 0.12%; viability, T/C (second compound 10 µM, first compound 1 µM): 0.12%; viability, T/C (second compound 10 µM, first compound 3.16 µM): 0.13%; viability, T/C (second compound 10 µM, first compound 10 µM): 0.2%
CC1COCCN1c1cc(-c2ccnn2C)c2ccnc(-c3ccn[nH]3)c2n1 (stereo not given) + C=CC(=O)N1CCN(c2nc(OCC3CCCN3C)nc3c2CCN(c2cccc4cccc(C)c24)C3)CC1CC#N | 19.8 nM | 19 nM | 18.3 nM | < 10 nM | 24.3% | 7.71% | 5.76% | 5.41% | 5.94% | 21.6% | 7.5% | 5.3% | 5.1% | 5.45% | 12.7% | 7.23% | 5.64% | 4.81% | 4.49% | 1.73% | IC50 (second compound 0.0316 µM): 20.3 nM; viability, T/C (second compound 0.0316 µM, first compound 0.01 µM): 88.9%; viability, T/C [1]: 25.8%; viability, T/C [2]: 7.37%; viability, T/C [3]: 5.84%; viability, T/C [4]: 5.53%; viability, T/C [5]: 6.31%; viability, T/C (second compound 0.1 µM, first compound 0.01 µM): 87.5%; viability, T/C (second compound 0.316 µM, first compound 0.01 µM): 85.9%; viability, T/C (second compound 1 µM, first compound 0.01 µM): 91.2%; viability, T/C (second compound 3.16 µM, first compound 0.01 µM): 1.43%; viability, T/C [25]: 1.13%; viability, T/C [26]: 1.47%; viability, T/C [27]: 0.61%; viability, T/C [28]: 1.05%
